The record followed here is patent publication US12421229B2, “Hydropyrido[1,2-α]pyrazine compounds for the treatment of autoimmune disease” (Hoffmann-La Roche Inc., priority 2019, dated 2025).

The target of the assay is T1, human TLR8 (Homo sapiens, UniProt Q9NR97).
T1 construct: host or cells: HEK293 (HEK-Blue hTLR8)
T1 sequence (Q9NR97 27-1041): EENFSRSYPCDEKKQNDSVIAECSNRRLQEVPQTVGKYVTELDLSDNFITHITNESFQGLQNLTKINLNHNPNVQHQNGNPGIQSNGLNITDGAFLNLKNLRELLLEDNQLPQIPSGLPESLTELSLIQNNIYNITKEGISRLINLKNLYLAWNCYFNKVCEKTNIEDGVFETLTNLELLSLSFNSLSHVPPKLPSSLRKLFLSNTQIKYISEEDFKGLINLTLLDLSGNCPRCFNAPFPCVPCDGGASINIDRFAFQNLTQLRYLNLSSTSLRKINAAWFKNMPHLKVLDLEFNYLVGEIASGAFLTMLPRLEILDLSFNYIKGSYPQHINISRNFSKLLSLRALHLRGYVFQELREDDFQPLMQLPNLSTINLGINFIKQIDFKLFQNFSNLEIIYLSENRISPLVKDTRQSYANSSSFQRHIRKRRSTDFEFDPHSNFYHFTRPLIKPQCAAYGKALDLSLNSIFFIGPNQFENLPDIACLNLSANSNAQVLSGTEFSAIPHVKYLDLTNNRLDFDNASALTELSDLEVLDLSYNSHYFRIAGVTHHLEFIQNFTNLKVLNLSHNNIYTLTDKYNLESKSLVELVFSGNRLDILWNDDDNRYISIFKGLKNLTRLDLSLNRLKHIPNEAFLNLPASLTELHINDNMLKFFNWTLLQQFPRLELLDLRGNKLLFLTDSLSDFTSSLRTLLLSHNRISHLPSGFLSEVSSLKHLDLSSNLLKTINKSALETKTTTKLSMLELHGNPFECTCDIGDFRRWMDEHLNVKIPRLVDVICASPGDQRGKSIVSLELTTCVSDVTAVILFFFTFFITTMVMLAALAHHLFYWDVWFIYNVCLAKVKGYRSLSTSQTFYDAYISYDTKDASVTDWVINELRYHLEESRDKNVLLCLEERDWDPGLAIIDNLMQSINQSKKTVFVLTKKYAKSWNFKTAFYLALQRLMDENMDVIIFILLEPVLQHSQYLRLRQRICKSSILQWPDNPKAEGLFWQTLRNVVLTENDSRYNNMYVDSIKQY
Nature of the assay: HEK293-Blue-hTLR-8 cells assay. The class given is cell-based. As to conditions: HEK293-Blue-hTLR8 cells, R848 stimulation, 20 hrs, SEAP reporter; read-out: HEK/hTLR8 IC50. The source says:
A stable HEK293-Blue-hTLR-8 cell line was purchased from InvivoGen (Cat. #: hkb-htlr8, San Diego, California, USA). These cells were originally designed for studying the stimulation of human TLR8 by monitoring the activation of NF-κB. A SEAP (secreted embryonic alkaline phosphatase) reporter gene was placed under the control of the IFN-β minimal promoter fused to five NF-κB and AP-1-binding sites. The SEAP was induced by activating NF-κB and AP-1 via stimulating HEK-Blue hTLR8 cells with TLR8 ligands. Therefore the reporter expression was declined by TLR8 antagonist under the stimulation of a ligand, such as R848, for incubation of 20 hrs. The cell culture supernatant SEAP reporter activity was determined using QUANTI-Blue™ kit (Cat. #: rep-qb1, Invivogen, San Diego, Ca, USA) at a wavelength of 640 nm, a detection medium that turns purple or blue in the presence of alkaline phosphatase.
HEK293-Blue-hTLR8 cells were incubated at a density of 250,000˜450,000 cells/mL in a volume of 170 μL in a 96-well plate in Dulbecco's Modified Eagle's medium (DMEM) containing 4.5 g/L glucose, 50 U/mL penicillin, […], […], 2 mM L-glutamine, 10% (v/v) heat-inactivated fetal bovine serum with addition of 20 μL test compound in a serial dilution in the presence of final DMSO at 1% and 10 μL of 60 uM R848 in above DMEM, perform incubation under 37° C. in a CO2 incubator for 20 hrs. Then 20 μL of the supernatant from each well was incubated with 180 μL Quanti-blue substrate solution at 37° C. for 2 hrs and the absorbance was read at 620˜655 nm using a spectrophotometer. The signaling pathway that TLR8 activation leads to downstream NF-κB activation has been widely accepted, and therefore similar reporter assay was modified for evaluating TLR8 antagonist.
Regarding `C[C@@H]1CN(c2ccc(C#N)c3ncccc23)C[C@@H]2C[C@H](c3ccc(N4CCNCC4)nc3)CCN21` [Example 4, 5-[(4R,8R,9aS)-4-methyl-8-(6-piperazin-1-yl-3-pyridyl)-1,3,4,6,7,8,9,9a-octahydropyrido[1,2-a]pyrazin-2-yl]quinoline-8-carbonitrile], the IC50 came to 0.018 µM.

Turning to `CO[C@H]1CN(c2ccc([C@@H]3CCN4[C@@H](C3)CN(c3ccc(C#N)c5ncccc35)C[C@H]4C)cn2)C[C@H]1N` [Example 12, 5-[(4R,8R,9aS)-8-[6-[(3R,4S)-3-amino-4-methoxy-pyrrolidin-1-yl]-3-pyridyl]-4-methyl-1,3,4,6,7,8,9,9a-octahydropyrido[1,2-a]pyrazin-2-yl]quinoline-8-carbonitrile], the IC50 was 0.045 µM.

Turning to `C[C@@H]1CN(c2ccc(C#N)c3ncccc23)C[C@@H]2C[C@@H](Oc3cnc(N4CCNCC4)nc3)CCN21` [Example 18, 5-[(4R,8S,9aS)-4-methyl-8-(2-piperazin-1-ylpyrimidin-5-yl)oxy-1,3,4,6,7,8,9,9a-octahydropyrido[1,2-a]pyrazin-2-yl]quinoline-8-carbonitrile], the IC50 amounted to 0.006 µM.

With `CO[C@@H]1CN(c2ccc(C3CN([C@@H]4CCN5[C@@H](C4)CN(c4ccc(C#N)c6ncccc46)C[C@H]5C)C3)cc2)C[C@H]1N` [Example 30, 5-[(4R,8R,9aS)-8-[3-[4-[(3R,4R)-3-amino-4-methoxy-pyrrolidin-1-yl]phenyl]azetidin-1-yl]-4-methyl-1,3,4,6,7,8,9,9a-octahydropyrido[1,2-a]pyrazin-2-yl]quinoline-8-carbonitrile], the IC50 was 0.069 µM.

Take `C[C@@H]1CN(c2ccc(C#N)c3ncccc23)C[C@@H]2C[C@@H](c3ccc(C4CNCCO4)cc3)CCN21` (stereo partly drawn) [Example 24, 5-[(4R,8S,9aS)-4-methyl-8-(4-morpholin-2-ylphenyl)-1,3,4,6,7,8,9,9a-octahydropyrido[1,2-a]pyrazin-2-yl]quinoline-8-carbonitrile]: the IC50 came to 0.014 µM.

As for `C[C@@H]1CN(c2ccc(C#N)c3ncccc23)CC2C[C@H](c3ccc(N4CCNCC4)cc3)CCN21` (stereo partly drawn) [Example 3, 5-[(4R,8R)-4-methyl-8-(4-piperazin-1-ylphenyl)-1,3,4,6,7,8,9,9a-octahydropyrido[1,2-a]pyrazin-2-yl]quinoline-8-carbonitrile], the IC50 came to 0.023 µM.

As for `CO[C@@H]1CN(c2ccc([C@@H]3CCN4[C@@H](C3)CN(c3ccc(C#N)c5ncccc35)C[C@H]4C)cn2)C[C@H]1N` [Example 14, 5-[(4R,8R,9aS)-8-[6-[(3R,4R)-3-amino-4-methoxy-pyrrolidin-1-yl]-3-pyridyl]-4-methyl-1,3,4,6,7,8,9,9a-octahydropyrido[1,2-a]pyrazin-2-yl]quinoline-8-carbonitrile], the IC50 is 0.048 µM.

As to `[2H]c1ccc2c(N3C[C@@H]4C[C@H](N5CCN(c6ccncc6)CC5)CCN4[C@H](C)C3)ccc(C#N)c2n1` [Example 37, 5-[(4R,8R,9aS)-4-methyl-8-[4-(4-pyridyl)piperazin-1-yl]-1,3,4,6,7,8,9,9a-octahydropyrido[1,2-a]pyrazin-2-yl]-2-deuterio-quinoline-8-carbonitrile], the IC50 is 0.116 µM.

On to `C[C@@H]1CN(c2ccc(C#N)c3ncccc23)C[C@@H]2C[C@H](c3ccc(N4CCOC[C@@H](N)C4)nc3)CCN21` [Example 23, 5-[(4R,8R,9aS)-8[6-[(6S)-6-amino-1,4-oxazepan-4-yl]-3-pyridyl]-4-methyl-1,3,4,6,7,8,9,9a-octahydropyrido[1,2-a]pyrazin-2-yl]quinoline-8-carbonitrile], for which the IC50 is 0.079 µM.

With `C[C@@H]1CN(c2ccc(C#N)c3ncccc23)C[C@@H]2C[C@@H](Oc3cncc(N4CCNCC4)c3)CCN21` [Example 29, 5-[(4R,8S,9aS)-4-methyl-8-[(5-piperazin-1-yl-3-pyridyl)oxy]-1,3,4,6,7,8,9,9a-octahydropyrido[1,2-a]pyrazin-2-yl]quinoline-8-carbonitrile], the IC50 was determined as 0.005 µM.

Turning to `[2H]c1ccc2c(N3C[C@@H]4C[C@H](Nc5ccc(C[C@@H]6CNCCO6)cc5)CCN4[C@H](C)C3)ccc(C#N)c2n1` [Example 22, 5-[(4R,8R,9aS)-4-methyl-8-[4-[[(2R)-morpholin-2-yl]methyl]anilino]-1,3,4,6,7,8,9,9a-octahydropyrido[1,2-a]pyrazin-2-yl]-2-deuterio-quinoline-8-carbonitrile], the IC50 is 0.049 µM.

Regarding `CO[C@H]1CN(c2ccc([C@@H]3CCN4[C@@H](C3)CN(c3ccc(C#N)c5ncccc35)C[C@H]4C)cn2)C[C@@H]1N` [Example 6, 5-[(4R,8R,9aS)-8-[6-[(3S,4S)-3-amino-4-methoxy-pyrrolidin-1-yl]-3-pyridyl]-4-methyl-1,3,4,6,7,8,9,9a-octahydropyrido[1,2-a]pyrazin-2-yl]quinoline-8-carbonitrile], the IC50 turned out to be 0.047 µM.

Turning to `C[C@@H]1CN(c2ccc(C#N)c3ncccc23)C[C@@H]2C[C@H](c3ccc(N4CCNCC4)nc3)CCN21` (stereo in doubt) [Example 2, 5-[(4R,8R)-4-methyl-8-(6-piperazin-1-yl-3-pyridyl)-1,3,4,6,7,8,9,9a-octahydropyrido[1,2-a]pyrazin-2-yl]quinoline-8-carbonitrile], the IC50 stood at 0.019 µM.

As for `[2H]c1ccc2c(N3C[C@@H]4C[C@@H](N5CC(c6ccc(N7C[C@@H](N)[C@H](OC)C7)cc6)C5)CCN4[C@H](C)C3)ccc(C#N)c2n1` [Example 36], the IC50 came out at 0.018 µM.

With `C[C@@H]1CN(c2ccc(C#N)c3ncccc23)C[C@@H]2C[C@H](c3ccc(N4CC(N)C4)nc3)CCN21` [Example 7, 5-[(4R,8R,9aS)-8-[6-(3-aminoazetidin-1-yl)-3-pyridyl]-4-methyl-1,3,4,6,7,8,9,9a-octahydropyrido[1,2-a]pyrazin-2-yl]quinoline-8-carbonitrile], the IC50 is 0.125 µM.

On to `CO[C@@H]1CN(c2ccc([C@@H]3CCN4[C@@H](C3)CN(c3ccc(C#N)c5ncccc35)C[C@H]4C)cn2)C[C@@H]1N` [Example 13, 5-[(4R,8R,9aS)-8-[6-[(3S,4R)-3-amino-4-methoxy-pyrrolidin-1-yl]-3-pyridyl]-4-methyl-1,3,4,6,7,8,9,9a-octahydropyrido[1,2-a]pyrazin-2-yl]quinoline-8-carbonitrile], for which the IC50 turned out to be 0.046 µM.

`C[C@@H]1CN(c2ccc(C#N)c3ncccc23)C[C@@H]2C[C@H](c3ccc([C@@H]4CNCCO4)cc3)CCN21` [Example 27, 5-[(4R,8R,9aS)-4-methyl-8-[4-[(2R)-morpholin-2-yl]phenyl]-1,3,4,6,7,8,9,9a-octahydropyrido[1,2-a]pyrazin-2-yl]quinoline-8-carbonitrile]: the IC50 was found to be 0.018 µM.

On to `C[C@@H]1CN(c2ccc(C#N)c3ncccc23)C[C@@H]2CC(c3ccc(C[C@@H]4CNCCO4)cc3)CCN21` (stereo in doubt) [Example 25, 5-[(4R,8R,9aS)-4-methyl-8-[4-[[(2R)-morpholin-2-yl]methyl]phenyl]-1,3,4,6,7,8,9,9a-octahydropyrido[1,2-a]pyrazin-2-yl]quinoline-8-carbonitrile], for which the IC50 came out at 0.03 µM.
